Where two headings read alike, the source gives them in different places.
Assays:
[1] = system: murine keratinocyte cell line PE; experiment: Growth inhibition of PE cells, MTT assay; format: cell-based; conditions: 100 nanomolar; compared with calcitriol; FIG. 5
Procedure: To determine the inhibitory effect of the compositions of the present invention on cell proliferation, screening assays were performed on a murine keratinocyte cell line PE. Cell line PE was chosen for its particular sensitivity to the induction of omithine decarboxylase (ODC) activity by the extensively characterized tumor promoter TPA. Cell line PE was derived from a papilloma-induced in female SENCAR mice by a standard skin initiation/promotion protocol, see Yuspa, S. H., et al., Carcinogenesis, 7:949-958 (1986). PE cell culture medium consisted of Eagle's minimal essential medium without calcium chloride (Whittaker Bioproducts, Walkersville, Mass.) supplemented with 8% chelexed fetal calf serum and 1% antibiotic-antimycotic (Gibco BRL) and the addition of CaCI2 to 0.05 mM Ca^++
MTT [3-(4,5-dimethylthiazol-2-yl)-2,5-diphenyltetraxolium bromide] was purchased from Sigma Chemical Co. (St. Louis, Mo.), and TPA was supplied by L.C. Services (Woburn, Mass.). L-[^14C]omithine ([…]) was from Amersham/Searle Corp. (Arlington Heights, Ill.). Chemical solvents used in all assays of biological activity were of the highest grade commercially available.
Growth curves, shown in FIG. 5, for PE cells treated with calcitriol and the C-10 carbon-substituted dimers VII-f, VII-g and VII-h generated by assay for the reduction of the tetrazolium-based compound MTT, see Charmichael, et al., Cancer Res., 47:936-942 (1987). A mitochondrial dehydrogenase reduces MTT to a blue formazan product with an absorbance maximum of 505 nm in DMSO; the number of viable cells can thus be determined spectrophotometrically. PE cells were seeded at a density of 5,000 cells/well in 50 IL of medium into 96-well microtiter plates. Twelve hours later, the medium was removed, and cells were treated with 100 μL of fresh medium into which the appropriate amount of calcitriol or analog dissolved in dimethyl sulfoxide (DMSO) had been added, with the concentration of DMSO held constant at 0.1 %. […] At 24-hour intervals following the initial treatment of the cells with compounds, 0.1 mg (50 μL of a 2 mg/mL solution) of MTT was added to each well. After 4 hours, the MTT was removed and DMSO added to dissolve the blue formazan dye. Using a microtiter plate reader, the A505 was then determined and cell number calculated from blank-subtracted absorbance values.

HL-60(TB) = experiment: NCI 60 cell line screen (SRB), Leukemia; format: cell-based
MOLT-4 = system: MOLT-4
Procedure: The screening assay is performed on 96-well microtitre plates. Relatively high initial inoculation densities are used, in order to permit measurement of “time-zero” values and to enhance the screen's ability to detect and provide some differentiation between antiproliferative and cytotoxic response parameters. […] The inoculated microtitre plates are pre-incubated for 24 hours at 37θC prior to drug additions. The five drug dilutions tested routinely range from 10^−4 to 10^−8 molar. Higher or lower concentration ranges may be selected on a nonroutine basis if appropriate solubility and/or prior biological information or other screening data so dictate. Duplicate wells are prepared for all concentrations, (concentration is often denoted by placing brackets around a number); “time-zero” and “no drug” controls are also provided for each test. The minimum amount of compound required for a one-time evaluation in the routine screen can be calculated from the knowledge that each test requires a total of approximately 40 ml (0.04 liter) of cell culture medium containing the highest desired drug concentration. Thus, the amount (grams) of sample required (assuming an upper test concentration limit of 10^−4 M) is: molecular weight of compound×[…]. After a 48 hour incubation (37θC) with the test compound, the cells are fixed in situ to the bottoms of the microtitre wells by addition of 50 ul of either 50% trichloroacetic acid (for adherent cell lines) or 80% trichloroacetic acid (for settled cell suspension lines), followed by incubation for 60 minutes at 4θC. The cellular protein in each well is assayed using a sulforhodamine B (SRB) stain procedure. Briefly, after discarding the supernatants, the microtitre plates are washed 5 times with deionized water and air-dried. One hundred microliters of SRB solution (0.4% w/v in 1% acetic acid) is added to each microtitre well and incubated for 10 minutes at room temperature. Unbound SRB is removed by washing 5 times with 1 % acetic acid. The plates are air-dried, the bound stain is solubilized with Tris buffer, and the optical densities read at 515 nm. SRB is a bright pink anionic dye which, in dilute acetic acid, binds electrostatically to the basic amino acids of TCA-fixed cells. Cryopreserved master stocks of all the lines are maintained, and cultures used for screening are replaced from the master stock after no more than twenty passages in the screening laboratory. The cell line panel consists of 60 lines, organized into nine, disease-related subpanels including leukemia, non-small-cell lung cancer, colon, CNS, melanoma, ovarian, renal, prostate and breast cancers.
The response parameters G150 and LC50 are interpolated values representing the concentrations at which the percentage growth (PG) is +50 and −50, respectively:
GI50 is the concentration for which the PG=+50. At this value the increase from time tzero, in the number or mass of cells in the test well is only 50% as much as the corresponding increase in the control well during this period of the experiment, see Table II. A drug effect of this intensity is interpreted as primary growth inhibition.
TGI is the concentration for which PG=0. At this value the number or mass of cells in the well at the end of the experiment equals the number or mass of cells in the well at time tzero, see Table III. A drug effect of this intensity is regarded as cytostasis.
LC50 is the concentration for which the PG=−50. At this value, the number or mass of cells in the test well at the end of the experiment is half that at time tzero, see Table IV. This is interpreted as cytotoxicity.

SF-268 = experiment: NCI 60 cell line screen (SRB), CNS Cancer; format: cell-based
SN12C = experiment: NCI 60 cell line screen (SRB), Renal Cancer; format: cell-based
DU-145 = experiment: NCI 60 cell line screen (SRB), Prostate Cancer; format: cell-based
NCI/ADR-RES = experiment: NCI 60 cell line screen (SRB), Breast Cancer; format: cell-based
HS 578T = experiment: NCI 60 cell line screen (SRB), Breast Cancer; format: cell-based
MDA-N = experiment: NCI 60 cell line screen (SRB), Breast Cancer; format: cell-based

With `CC1=C(C=Cc2cccc(C=CC3=C(C)C4CCC(C)C5CCC6(C)OOC45C(O3)O6)c2)OC2OC3(C)CCC4C(C)CCC1C24OO3` (centres unmarked) [VII-h] the “antiproliferative activity in words” value [1] was “at least as antiproliferative as calcitriol”, the Log10TGI (HL-60(TB); PG=0) was −7.59 log10M and the Log10GI50 (HL-60(TB); PG=+50) was −7.59 log10M. For the same compound, the Log10GI50 (HL-60(TB); Table IV (LC50, PG=−50)) was >−4.00 log10M, the “drug concentration for cytotoxicity (percentage growth −50)” value (MOLT-4) was “greater than 10^−4 M” and the “drug concentration for primary growth inhibition (percentage growth +50)” value (MOLT-4; MOLT-4, FIGS. 6a-6e) was “greater than 10^−8 molar”. For the same compound, the Log10GI50 (MOLT-4; MOLT-4, PG=+50) was <−8.00 log10M, the Log10TGI (MOLT-4; MOLT−4, PG=0) was <−8.00 log10M and the Log10GI50 (MOLT-4; Table IV (LC50, PG=−50), MOLT−4) was >−4.00 log10M. The Log10TGI (SF-268; PG=0) was >−4.00 log10M, the Log10GI50 (SF-268; PG=+50) was −6.86 log10M and the Log10TGI (SN12C; SN12C, PG=0) was >−4.00 log10M. The Log10GI50 (SN12C; SNI2C, PG=+50) was −7.31 log10M, the Log10GI50 (SN12C; Table IV (LC50, PG=−50), SN12C) was −4.00 log10M and the Log10TGI (DU-145; PG=0) was >−4.00 log10M. The Log10GI50 (DU-145; PG=+50) was −6.16 log10M, the Log10GI50 (DU-145; Table IV (LC50, PG=−50)) was >−4.00 log10M and the Log10TGI (NCI/ADR-RES; PG=0) was −4.40 log10M. For the same compound, the Log10GI50 (NCI/ADR-RES; PG=+50) was −5.76 log10M, the Log10GI50 (NCI/ADR-RES; Table IV (LC50, PG=−50)) was >−4.00 log10M and the Log10TGI (HS 578T; PG=0) was >−4.00 log10M. For the same compound, the Log10GI50 (HS 578T; PG=+50) was −7.41 log10M, the Log10GI50 (HS 578T; Table IV (LC50, PG=−50)) was >−4.00 log10M and the Log10TGI (MDA-N; PG=0) was −5.42 log10M. For the same compound, the Log10GI50 (MDA-N; PG=+50) was −7.33 log10M and the Log10GI50 (MDA-N; Table IV (LC50, PG=−50)) was >−4.00 log10M.
